Measurements taken from patent US9546156B2, “N-bicyclic aryl,N'-pyrazolyl urea, thiourea, guanidine cyanoguanidine compounds as TrkA kinase inhibitors” (Array BioPharma Inc., priority 2012, dated 2017).

Key:
[1] = target: T1, His-tagged recombinant human TrkA (Homo sapiens, UniProt P04629); assay: TrkA LanthaScreen Eu Kinase Binding Assay; details: averaged IC50; TR-FRET binding assay, 60 min, 22° C.; read-out: TrkA Enzyme IC50
T1 construct: 6HIS tagged cytoplasmic domain from Invitrogen, Catalog No. PV3144; purchased Invitrogen PV3144
Method: TrkA binding activity was determined in a TrkA LanthaScreen™ Eu Kinase Binding Assay. 5 nM His-tagged recombinant human TrkA (6HIS tagged cytoplasmic domain from Invitrogen, Catalog No. PV3144) was incubated with 4 nM Alexa-Fluor® Tracer 236 (Invitrogen Cat. No. PV5592), 2 nM biotinylated anti-His (Invitrogen Cat. No. PV6090), and 2 nM europium-labeled Streptavidin (Invitrogen Cat. No. PV5899), in buffer (25 mM MOPS, pH 7.5, 5 mM MgCl2, 0.005% Triton X-100). Three fold serial dilutions of compounds of the invention in DMSO were added to a final percentage of 2% DMSO. After 60-minute incubation at 22° C., the reaction was measured using the EnVision multimode plate reader (PerkinElmer) via TR-FRET dual wavelength detection at […]. The percent of control was calculated using a ratiometric emission factor. The IC50 values were determined by fitting a four parameter model to the percent of control data.
Table A provides averaged IC50 values for compounds of the invention when tested in the assay of Example A, where A represents an averaged IC50 value <100 nM; B represents an averaged IC50 value from 100 to 1,000 nM; and C represents an averaged IC50 value from 1,000 to 10,000 nM.

CDK3/cyclinE = target: T2, CDK3/cyclinE (Homo sapiens, UniProt Q00526); assay: Off-target kinase profiling (KinaseProfiler); format: biochemical; details: 10 μM, ATP near Km
T2 construct: purchased Millipore, Inc. (KinaseProfiler service)
Method in brief: (§1)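 Off-target inhibition is captured as POC from a single 10 μM dose. Replicates: two, averaged. ATP was kept near Km kinase by kinase.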

CDK6/cyclinD3 = target: T3, CDK6/cyclinD3 (Homo sapiens, UniProt Q00534); assay: Off-target kinase profiling (KinaseProfiler); format: biochemical; details: 10 μM, ATP near Km
T3 construct: purchased Millipore, Inc. (KinaseProfiler service)
Method in brief: as §1

CK1_y = assay: Off-target kinase profiling (KinaseProfiler); format: biochemical; details: 10 μM, ATP near Km
Method in brief: as §1

CLK3 = target: T4, CLK3 (Homo sapiens, UniProt P49761); assay: Off-target kinase profiling (KinaseProfiler); format: biochemical; details: 10 μM, ATP near Km
T4 construct: purchased Millipore, Inc. (KinaseProfiler service)
Method in brief: as §1

EphB2 = target: T5, EphB2 (Homo sapiens, UniProt P29323); assay: Off-target kinase profiling (KinaseProfiler); format: biochemical; details: 10 μM, ATP near Km
T5 construct: purchased Millipore, Inc. (KinaseProfiler service)
Method in brief: as §1

EphB3 = target: T6, EphB3 (Homo sapiens, UniProt P54753); assay: Off-target kinase profiling (KinaseProfiler); format: biochemical; details: 10 μM, ATP near Km
T6 construct: purchased Millipore, Inc. (KinaseProfiler service)
Method in brief: as §1

FAK2 = target: T7, FAK2 (Homo sapiens, UniProt Q14289); assay: Off-target kinase profiling (KinaseProfiler); format: biochemical; details: 10 μM, ATP near Km
T7 construct: purchased Millipore, Inc. (KinaseProfiler service)
Method in brief: as §1

HIPK1 = target: T8, HIPK1 (Homo sapiens, UniProt Q86Z02); assay: Off-target kinase profiling (KinaseProfiler); format: biochemical; details: 10 μM, ATP near Km
T8 construct: purchased Millipore, Inc. (KinaseProfiler service)
Method in brief: as §1

JAK2 = target: T9, JAK2 (Homo sapiens, UniProt O60674); assay: Off-target kinase profiling (KinaseProfiler); format: biochemical; details: 10 μM, ATP near Km
T9 construct: purchased Millipore, Inc. (KinaseProfiler service)
Method in brief: as §1

JAK3 = target: T10, JAK3 (Homo sapiens, UniProt P52333); assay: Off-target kinase profiling (KinaseProfiler); format: biochemical; details: 10 μM, ATP near Km
T10 construct: purchased Millipore, Inc. (KinaseProfiler service)
Method in brief: as §1

LKB1 = target: T11, LKB1 (Homo sapiens, UniProt Q15831); assay: Off-target kinase profiling (KinaseProfiler); format: biochemical; details: 10 μM, ATP near Km
T11 construct: purchased Millipore, Inc. (KinaseProfiler service)
Method in brief: as §1

MKK4_m = target: T12, MKK4_m (Mus musculus, UniProt P47809); assay: Off-target kinase profiling (KinaseProfiler); format: biochemical; details: 10 μM, ATP near Km
T12 construct: purchased Millipore, Inc. (KinaseProfiler service)
Method in brief: as §1

MST2 = target: T13, MST2 (Homo sapiens, UniProt Q13188); assay: Off-target kinase profiling (KinaseProfiler); format: biochemical; details: 10 μM, ATP near Km
T13 construct: purchased Millipore, Inc. (KinaseProfiler service)
Method in brief: as §1

MuSK = target: T14, MuSK (Homo sapiens, UniProt O15146); assay: Off-target kinase profiling (KinaseProfiler); format: biochemical; details: 10 μM, ATP near Km
T14 construct: purchased Millipore, Inc. (KinaseProfiler service)
Method in brief: as §1

NEK11 = target: T15, NEK11 (Homo sapiens, UniProt Q8NG66); assay: Off-target kinase profiling (KinaseProfiler); format: biochemical; details: 10 μM, ATP near Km
T15 construct: purchased Millipore, Inc. (KinaseProfiler service)
Method in brief: as §1

NEK6 = target: T16, NEK6 (Homo sapiens, UniProt Q9HC98); assay: Off-target kinase profiling (KinaseProfiler); format: biochemical; details: 10 μM, ATP near Km
T16 construct: purchased Millipore, Inc. (KinaseProfiler service)
Method in brief: as §1

PAK6 = target: T17, PAK6 (Homo sapiens, UniProt Q9NQU5); assay: Off-target kinase profiling (KinaseProfiler); format: biochemical; details: 10 μM, ATP near Km
T17 construct: purchased Millipore, Inc. (KinaseProfiler service)
Method in brief: as §1

PKCiota = target: T18, PKCiota (Homo sapiens, UniProt P41743); assay: Off-target kinase profiling (KinaseProfiler); format: biochemical; details: 10 μM, ATP near Km
T18 construct: purchased Millipore, Inc. (KinaseProfiler service)
Method in brief: as §1

PRKG1alpha = target: T19, PRKG1alpha (Homo sapiens, UniProt Q13976); assay: Off-target kinase profiling (KinaseProfiler); format: biochemical; details: 10 μM, ATP near Km
T19 construct: purchased Millipore, Inc. (KinaseProfiler service)
Method in brief: as §1

PTK6 = target: T20, PTK6 (Homo sapiens, UniProt Q13882); assay: Off-target kinase profiling (KinaseProfiler); format: biochemical; details: 10 μM, ATP near Km
T20 construct: purchased Millipore, Inc. (KinaseProfiler service)
Method in brief: as §1

Rsk2 = target: T21, Rsk2 (Homo sapiens, UniProt P51812); assay: Off-target kinase profiling (KinaseProfiler); format: biochemical; details: 10 μM, ATP near Km
T21 construct: purchased Millipore, Inc. (KinaseProfiler service)
Method in brief: as §1

SRPK2 = target: T22, SRPK2 (Homo sapiens, UniProt P78362); assay: Off-target kinase profiling (KinaseProfiler); format: biochemical; details: 10 μM, ATP near Km
T22 construct: purchased Millipore, Inc. (KinaseProfiler service)
Method in brief: as §1

STK33 = target: T23, STK33 (Homo sapiens, UniProt Q9BYT3); assay: Off-target kinase profiling (KinaseProfiler); format: biochemical; details: 10 μM, ATP near Km
T23 construct: purchased Millipore, Inc. (KinaseProfiler service)
Method in brief: as §1

TAO1 = target: T24, TAO1 (Homo sapiens, UniProt Q7L7X3); assay: Off-target kinase profiling (KinaseProfiler); format: biochemical; details: 10 μM, ATP near Km
T24 construct: purchased Millipore, Inc. (KinaseProfiler service)
Method in brief: as §1

T10 sequence (P52333 whole entry): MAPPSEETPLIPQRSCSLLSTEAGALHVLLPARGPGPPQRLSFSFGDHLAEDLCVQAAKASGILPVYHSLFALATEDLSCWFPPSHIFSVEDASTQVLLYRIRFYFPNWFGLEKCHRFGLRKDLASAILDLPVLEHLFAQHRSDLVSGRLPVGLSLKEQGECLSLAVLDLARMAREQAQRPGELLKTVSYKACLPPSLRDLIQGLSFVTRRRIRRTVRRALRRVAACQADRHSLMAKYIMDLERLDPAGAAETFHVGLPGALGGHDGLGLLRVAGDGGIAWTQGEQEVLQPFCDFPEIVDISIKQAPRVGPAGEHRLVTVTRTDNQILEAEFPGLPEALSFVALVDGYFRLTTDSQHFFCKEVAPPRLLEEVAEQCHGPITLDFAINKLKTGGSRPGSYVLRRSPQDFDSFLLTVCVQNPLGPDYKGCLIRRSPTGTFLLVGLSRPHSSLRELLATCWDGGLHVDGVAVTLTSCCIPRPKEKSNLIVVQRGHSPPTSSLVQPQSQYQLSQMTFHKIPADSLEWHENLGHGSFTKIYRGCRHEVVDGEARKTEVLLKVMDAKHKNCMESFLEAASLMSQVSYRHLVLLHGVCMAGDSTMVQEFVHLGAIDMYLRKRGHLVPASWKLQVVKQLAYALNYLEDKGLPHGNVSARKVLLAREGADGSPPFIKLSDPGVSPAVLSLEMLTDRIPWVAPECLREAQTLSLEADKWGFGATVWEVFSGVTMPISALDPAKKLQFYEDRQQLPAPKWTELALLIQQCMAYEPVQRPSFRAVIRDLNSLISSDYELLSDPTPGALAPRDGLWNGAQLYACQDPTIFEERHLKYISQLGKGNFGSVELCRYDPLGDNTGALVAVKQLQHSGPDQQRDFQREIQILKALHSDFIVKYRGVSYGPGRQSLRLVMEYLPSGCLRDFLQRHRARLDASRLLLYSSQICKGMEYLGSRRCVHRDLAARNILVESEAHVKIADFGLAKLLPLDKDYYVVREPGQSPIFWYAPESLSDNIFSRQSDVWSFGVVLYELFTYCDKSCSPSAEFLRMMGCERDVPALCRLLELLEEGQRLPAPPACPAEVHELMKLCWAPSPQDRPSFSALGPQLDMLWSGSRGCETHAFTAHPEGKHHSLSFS
T7 sequence (Q14289 whole entry): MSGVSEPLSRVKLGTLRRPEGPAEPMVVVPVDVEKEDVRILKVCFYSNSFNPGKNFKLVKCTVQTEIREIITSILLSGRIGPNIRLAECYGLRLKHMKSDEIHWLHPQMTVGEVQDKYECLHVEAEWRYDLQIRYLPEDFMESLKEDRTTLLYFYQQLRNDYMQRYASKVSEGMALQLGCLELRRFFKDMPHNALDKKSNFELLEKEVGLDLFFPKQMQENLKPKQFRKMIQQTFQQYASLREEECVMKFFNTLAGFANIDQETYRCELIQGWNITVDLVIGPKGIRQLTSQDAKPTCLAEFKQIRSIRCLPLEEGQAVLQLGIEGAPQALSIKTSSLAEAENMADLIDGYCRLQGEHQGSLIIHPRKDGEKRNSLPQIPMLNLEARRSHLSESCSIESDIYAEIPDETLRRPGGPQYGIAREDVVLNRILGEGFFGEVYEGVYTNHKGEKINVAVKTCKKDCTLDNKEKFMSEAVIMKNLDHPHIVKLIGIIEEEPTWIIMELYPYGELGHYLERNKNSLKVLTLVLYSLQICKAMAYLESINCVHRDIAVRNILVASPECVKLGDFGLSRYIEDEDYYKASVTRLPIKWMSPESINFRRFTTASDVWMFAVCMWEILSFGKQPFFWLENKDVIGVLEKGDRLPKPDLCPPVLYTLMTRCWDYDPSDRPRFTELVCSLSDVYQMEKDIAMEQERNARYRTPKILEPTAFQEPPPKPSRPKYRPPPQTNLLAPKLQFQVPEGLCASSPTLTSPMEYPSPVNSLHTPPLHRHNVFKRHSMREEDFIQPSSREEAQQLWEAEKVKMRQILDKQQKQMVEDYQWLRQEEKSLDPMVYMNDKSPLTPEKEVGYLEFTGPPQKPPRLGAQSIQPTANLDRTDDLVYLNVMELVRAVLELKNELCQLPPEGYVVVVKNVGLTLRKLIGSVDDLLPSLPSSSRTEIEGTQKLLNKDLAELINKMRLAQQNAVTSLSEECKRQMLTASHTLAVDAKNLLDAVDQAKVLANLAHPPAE
T4 sequence (P49761 whole entry): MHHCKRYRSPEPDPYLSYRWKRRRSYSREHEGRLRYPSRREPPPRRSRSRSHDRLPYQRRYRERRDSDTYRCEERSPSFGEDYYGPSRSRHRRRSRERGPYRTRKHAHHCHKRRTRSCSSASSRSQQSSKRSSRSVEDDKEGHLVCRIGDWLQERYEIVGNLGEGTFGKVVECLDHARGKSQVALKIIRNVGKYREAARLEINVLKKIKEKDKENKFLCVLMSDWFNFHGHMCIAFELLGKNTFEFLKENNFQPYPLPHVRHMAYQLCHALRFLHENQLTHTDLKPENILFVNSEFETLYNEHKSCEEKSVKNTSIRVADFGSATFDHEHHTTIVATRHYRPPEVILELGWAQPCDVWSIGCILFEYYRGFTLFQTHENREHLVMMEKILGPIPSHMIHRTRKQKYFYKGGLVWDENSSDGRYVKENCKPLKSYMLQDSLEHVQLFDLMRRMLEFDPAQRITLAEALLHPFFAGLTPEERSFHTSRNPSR
T5 sequence (P29323 19-1055): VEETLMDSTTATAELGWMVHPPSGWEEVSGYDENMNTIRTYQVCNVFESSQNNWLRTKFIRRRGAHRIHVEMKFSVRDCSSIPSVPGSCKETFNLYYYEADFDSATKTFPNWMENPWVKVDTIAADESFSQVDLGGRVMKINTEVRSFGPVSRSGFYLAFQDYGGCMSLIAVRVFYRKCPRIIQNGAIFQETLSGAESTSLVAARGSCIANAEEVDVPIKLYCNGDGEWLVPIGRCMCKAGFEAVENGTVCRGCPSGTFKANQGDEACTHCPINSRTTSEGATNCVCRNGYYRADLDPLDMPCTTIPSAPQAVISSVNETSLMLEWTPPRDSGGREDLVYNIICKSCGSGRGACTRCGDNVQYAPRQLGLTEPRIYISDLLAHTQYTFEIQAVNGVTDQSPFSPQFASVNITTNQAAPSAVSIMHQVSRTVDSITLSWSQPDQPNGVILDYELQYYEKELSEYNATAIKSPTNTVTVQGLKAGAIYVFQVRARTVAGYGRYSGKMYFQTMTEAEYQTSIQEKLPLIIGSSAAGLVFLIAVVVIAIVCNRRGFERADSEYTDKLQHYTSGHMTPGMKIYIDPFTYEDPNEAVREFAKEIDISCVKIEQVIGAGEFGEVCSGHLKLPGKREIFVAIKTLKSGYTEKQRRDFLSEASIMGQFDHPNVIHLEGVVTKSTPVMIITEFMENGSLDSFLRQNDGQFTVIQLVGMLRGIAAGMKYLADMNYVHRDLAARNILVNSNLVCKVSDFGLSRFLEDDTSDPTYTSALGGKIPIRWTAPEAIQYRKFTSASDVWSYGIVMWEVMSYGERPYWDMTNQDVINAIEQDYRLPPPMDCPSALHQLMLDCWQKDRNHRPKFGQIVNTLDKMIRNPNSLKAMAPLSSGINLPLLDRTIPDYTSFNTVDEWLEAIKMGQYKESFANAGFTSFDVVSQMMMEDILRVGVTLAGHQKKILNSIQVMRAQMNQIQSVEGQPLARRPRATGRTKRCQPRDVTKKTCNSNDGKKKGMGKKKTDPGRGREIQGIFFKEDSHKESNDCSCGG
T23 sequence (Q9BYT3 whole entry): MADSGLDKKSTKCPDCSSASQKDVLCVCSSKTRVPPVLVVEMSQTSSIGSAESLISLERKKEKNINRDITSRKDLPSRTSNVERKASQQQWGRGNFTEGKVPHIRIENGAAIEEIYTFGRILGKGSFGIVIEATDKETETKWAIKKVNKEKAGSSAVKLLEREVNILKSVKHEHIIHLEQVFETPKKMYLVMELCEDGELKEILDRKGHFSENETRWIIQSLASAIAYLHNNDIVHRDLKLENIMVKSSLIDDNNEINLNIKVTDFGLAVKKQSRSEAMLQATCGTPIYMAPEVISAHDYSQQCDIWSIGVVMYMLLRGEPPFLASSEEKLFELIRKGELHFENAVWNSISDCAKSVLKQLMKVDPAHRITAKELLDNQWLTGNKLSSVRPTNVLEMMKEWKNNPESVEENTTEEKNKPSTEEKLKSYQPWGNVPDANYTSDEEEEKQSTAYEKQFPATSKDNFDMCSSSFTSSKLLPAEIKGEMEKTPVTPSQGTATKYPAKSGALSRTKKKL
T21 sequence (P51812 whole entry): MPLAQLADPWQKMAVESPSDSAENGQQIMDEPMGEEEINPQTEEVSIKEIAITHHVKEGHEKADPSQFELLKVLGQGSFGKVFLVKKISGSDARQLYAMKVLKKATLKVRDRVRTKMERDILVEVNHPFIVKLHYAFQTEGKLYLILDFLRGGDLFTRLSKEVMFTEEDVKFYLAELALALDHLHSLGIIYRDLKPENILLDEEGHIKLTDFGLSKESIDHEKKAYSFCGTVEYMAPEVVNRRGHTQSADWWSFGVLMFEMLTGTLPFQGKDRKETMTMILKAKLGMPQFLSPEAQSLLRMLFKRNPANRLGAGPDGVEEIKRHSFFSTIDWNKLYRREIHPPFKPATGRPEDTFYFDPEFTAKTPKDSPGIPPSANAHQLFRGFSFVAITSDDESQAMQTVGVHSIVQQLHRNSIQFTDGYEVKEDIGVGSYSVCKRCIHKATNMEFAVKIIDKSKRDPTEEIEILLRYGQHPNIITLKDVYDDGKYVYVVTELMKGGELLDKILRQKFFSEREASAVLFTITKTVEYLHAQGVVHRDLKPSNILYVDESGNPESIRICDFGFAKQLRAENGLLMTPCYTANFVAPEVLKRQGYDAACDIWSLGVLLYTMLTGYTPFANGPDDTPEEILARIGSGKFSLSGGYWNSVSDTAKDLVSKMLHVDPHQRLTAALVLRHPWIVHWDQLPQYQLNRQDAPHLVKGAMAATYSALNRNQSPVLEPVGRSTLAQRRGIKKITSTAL

Compound: COCc1ccc2cccc(NC(=O)Nc3c(C)c(-c4cnn(C)c4)nn3-c3ccccc3)c2c1 [Example 16, 1-(1′,4-dimethyl-1-phenyl-1H,1′H-[3,4′-bipyrazol]-5-yl)-3-(7-(methoxymethyl)naphthalen-1-yl)urea]
- IC50 [1]: < 100 nM
- Avg POC (CDK3/cyclinE): 125 POC
- Avg POC (CDK6/cyclinD3): 121 POC
- Avg POC (CK1_y): 105 POC
- Avg POC (CLK3): 107 POC
- Avg POC (EphB2): 109 POC
- Avg POC (EphB3): 102.5 POC
- Avg POC (FAK2): 117.5 POC
- Avg POC (HIPK1): 119 POC
- Avg POC (JAK2): 181 POC
- Avg POC (JAK3): 131.5 POC
- Avg POC (LKB1): 111 POC
- Avg POC (MKK4_m): 120.5 POC
- Avg POC (MST2): 115 POC
- Avg POC (MuSK): 94 POC
- Avg POC (NEK11): 116 POC
- Avg POC (NEK6): 120 POC
- Avg POC (PAK6): 125 POC
- Avg POC (PKCiota): 109 POC
- Avg POC (PRKG1alpha): 109.5 POC
- Avg POC (PTK6): 114.5 POC
- Avg POC (Rsk2): 139.5 POC
- Avg POC (SRPK2): 105.5 POC
- Avg POC (STK33): 106 POC
- Avg POC (TAO1): 104.5 POC
